Assay results from US20130184272A1, “DIABETES THERAPEUTIC AGENT” (TAKEDA PHARMACEUTICAL COMPANY LIMITED, priority 2010, published 2013).

Columns and labels:
creatine kinase (CKM) = test: Muscle-related gene expression in myoblast: creatine kinase (CKM); type: cell-based, Mouse; conditions: for CKM/36B4 expression level: 10 μM, 1 day, relative value
EGLN3 = test: Muscle-related gene expression in myoblast: EGLN3; type: cell-based, Mouse; conditions: for EGLN3/36B4 expression level: 10 μM, 1 day, relative value
Description: • (1) In the same manner as in Example 1, C2C12 cell was cultured, and the compound of Reference Example 1 (10 nM) was added. A DMSO solution was added to the control group instead of the test compound. • (2) One day after the addition of the test compound or DMSO solution, total RNA was extracted using Rneasy 96 kit (Qiagen) and according to the manual of the kit, and cDNA was prepared using TaqMan reverse transcription reagent (Applied Biosystems). • (3) The expression level of MyoD (Mm00440387_m1, TaqMan Gene Expression Assays, Applied Biosystems), myogenin (Mm00446194_m1, TaqMan Gene Expression Assays, Applied Biosystems), creatine kinase (CKM) (Mm00432556_m1, TaqMan Gene Expression Assays, Applied Biosystems), EGLN3 (Mm00472200_m1, TaqMan Gene Expression Assays, Applied Biosystems) was measured by quantify PCR using ABI PRISM 7900 (Applied Biosystems). The expression level of each gene, shown in Table 3, Table 4, Table 5 and Table 6, was obtained by amendment against the expression level of 36B4 (Takeda Pharmaceutical Company Limited), and is shown in a relative value to the value of the control group cultured in a growth medium as 1.
The data of Table 3, Table 4, Table 5 and Table 6 show mean±standard deviation at n=6 (n is the number of samples).
The following depicts the sequences of genes used for the amendment. • 36B4-F: 5′-TGCCACACTCCATCATCAATG-3′ (SEQ ID NO: 1) • 36B4-R: 5′-CGCAAATGCAGATGGATCAG-3′ (SEQ ID NO: 2) • 5′-VIC-ACCTTCCCACTTACTGAAAAGGTCAAGGCC-TAMRA-3′ (SEQ ID NO: 3)

C/EBPα = test: Adipocyte-related gene expression level: C/EBPα; type: cell-based
Description: (§1) In the same manner as in Example 10, the cells were cultured, and total RNA was extracted using Rneasy96 kit (Qiagen) from the cell immediately before and 6 days after addition of […] of the compound of Reference Example 1. cDNA was prepared from the total RNA using TaqMan reverse transcription reagent (Applied Biosystems), quantitative PCR was performed by ABI PRISM7000 or 7000 using TaqMan Universal PCR master mix (Applied Biosystems) and commercially available primers, and the expression level of each gene was determined. The commercially available primers used were as follows. • C/EBPα (Mm00514283_s1, TaqMan Gene Expression Assays, Applied Biosystems) • C/EBPβ (Mm00843434_s1, TaqMan Gene Expression Assays, Applied Biosystems) • KLF15 (Mm00517792_m1, TaqMan Gene Expression Assays, Applied Biosystems) • PPARγ (Mm00440945_m1, TaqMan Gene Expression Assays, Applied Biosystems)
(§2) The expression level was amended by the amount of 36B4 (Takeda Pharmaceutical Company Limited) in the same manner as in Example 3, and the relative values to the value immediately before addition of each gene compound as 1 are shown in Table 16. The data in Table 16 show mean±standard deviation at n=3-4 (n is the number of samples).

PPARγ = test: Adipocyte-related gene expression level: PPARγ; type: cell-based
Description: as §1, §2

[1] = system: Normal male C57BL/6J mice; test: Data of normal mouse; type: in vivo
Description: Normal male C57BL/6J mice (CLEA Japan, Inc.) were bred allowing free ingestion of both feed and water. The mice were bred for acclimation for 1 week from 16-week-old. The body weight was measured, the mice were divided into 2 groups (5 per group) to be uniform, and the compound of Reference Example 1 (0.03 mg/kg) was orally administered to one group for 2 weeks. On the last day, the body weight, and plasma levels of total cholesterol, glucose, lactic acid, GOT, GPT and neutral lipid were measured. The data of Table 19 show mean±standard deviation at n=5 (n is the number of samples).

[2] = C2C12 cells cultured in a differentiation medium
[3] = 10 μm [sic] of compound, 6 days after addition, value immediately before addition = 1
[4] = normal mice, 0.03 mg/kg oral, 2 weeks

Compound: Cc1ncccc1Oc1sc(C(N)=O)c2c1-c1c(cnn1C)CC2 [Ref. Ex. 1, 1-methyl-8-[(2-methylpyridin-3-yl)oxy]-4,5-dihydro-1H-thieno[3,4-g]indazole-6-carboxamide]
- expression of creatine kinase (in words) (creatine kinase (CKM); [2]): promoted
- CKM/36B4 expression level (creatine kinase (CKM); DM (differentiation medium)): 4.84 ± 1.08
- CKM/36B4 expression level (creatine kinase (CKM); GM (growth medium)): 0.03 ± 0.01
- expression of EGLN3 (in words) (EGLN3; [2]): increased
- EGLN3/36B4 expression level (EGLN3; DM (differentiation medium)): 2.07 ± 1.15
- EGLN3/36B4 expression level (EGLN3; GM (growth medium)): 2.12 ± 0.15
- C/EBPα expression level (amended by 36B4) (C/EBPα; [3]): 1.6 ± 0.5
- expression level of C/EBPα (in words) (C/EBPα; C3H10T1/2 cell): decreased
- PPARγ expression level (amended by 36B4) (PPARγ; [3]): 4.5 ± 0.9
- expression level of PPARγ (in words) (PPARγ; C3H10T1/2 cell): decreased
- normal body weight and plasma markers (in words) ([1]; normal C57BL/6J mice): does not affect
- body weight (g) on last day [1, 4]: 28.03 ± 0.84 g
- plasma GOT (U/L) [1, 4]: 63.4 ± 31.1 U/L
- plasma GPT (U/L) [1, 4]: 29.4 ± 3.9 U/L
- plasma glucose [1, 4]: 155.5 ± 11.9 mg/dL
- plasma lactic acid [1, 4]: 49.3 ± 16.5 mg/dL
- plasma neutral fats [1, 4]: 78.0 ± 31.0 mg/dL
- plasma total cholesterol [1, 4]: 81.1 ± 10.2 mg/dL
- total amount of ingestion (g/2 weeks) [1, 4]: 55.6 ± 2.5 g/2 weeks
